# Data taken from US20240390352A1, “PHARMACEUTICAL COMPOSITION FOR PREVENTING OR TREATING CANCER COMPRISING CARNITINE ACYLCARNITINE CARRIER INHIBITOR AND ANTITUMOR AGENT” (NEW CANCER CURE - BIO CO.,LTD., priority 2021, published 2024).
# Several values for one entry are separate records, joined by “and”; a condition that tells them apart may be missing. Equal entries are not always repeated. Entries after “also recorded” stand apart in the source; their conditions may differ.
# How the values were obtained:
# [1] = tested on: MIA PaCa-2 cells xenograft tumor; assay: Pancreatic cancer xenograft tumor model; assay type: in vivo, Balb/c nude mice; details: irinotecan 20 mg/kg IP 1 days/week, alone or combined
# Protocol: To determine the anticancer synergistic effects of omeprazole (KN510) and irinotecan co-administration in vivo, a pancreatic cancer xenograft tumor model was constructed and administered with the drugs.
# Specifically, 6-8 week old Balb/c nude mice (Orient, Korea) were inoculated subcutaneously with MIA PaCa-2 cells (1×10^7) in 100 μl PBS using 1 ml syringe, and when the tumor size reached 100 mm^3, the mice were randomly divided into 4 groups with 4 mice per group, and then treated with drugs as shown in Table 14 below.
# We also performed two separate experiments with omeprazole (KN510), one at a concentration of 50 mg/kg and the other at 100 mg/kg. • 1) Control (solvent treatment) • 2) Omeprazole (KN510) alone (50 mg/kg or 100 mg/kg, P.O. injection), • 3) Irinotecan alone (20 mg/kg, I.P injection), • 4) Omeprazole (KN510) (50 mg/kg or 100 mg/kg)+irinotecan (20 mg/kg/) as a combination treatment group
# Primary tumor size was measured weekly using calipers. Tumor volumes were calculated using Equation 1 below, and data are expressed as mean (mean)+standard deviation (SD) values of mouse tumor volume per group.
# A549 cells = assay: SRB assay cancer cell growth rate, A549; assay type: cell-based; details: relative to control (100%), 48 hours, KN510 200 μM, irinotecan 2.5 μM, 5-FU 5 μM, gemcitabine 2.5 μM, paclitaxel 10 nM, cisplatin 1 μM, alone or KN510 + anticancer drug
# SR cells = assay: SRB assay cancer cell growth rate, SR; assay type: cell-based; details: relative to control (100%), 48 hours, KN510 200 μM, irinotecan 2.5 μM, 5-FU 5 μM, gemcitabine 2.5 μM, paclitaxel 10 nM, cisplatin 1 μM, alone or KN510 + anticancer drug
# PC-3 cells = assay: SRB assay cancer cell growth rate, PC-3; assay type: cell-based; details: relative to control (100%), 48 hours, KN510 200 μM, irinotecan 2.5 μM, 5-FU 5 μM, gemcitabine 2.5 μM, paclitaxel 10 nM, cisplatin 1 μM, alone or KN510 + anticancer drug
# CAKI-1 cells = assay: SRB assay cancer cell growth rate, CAKI-1; assay type: cell-based; details: relative to control (100%), 48 hours, KN510 200 μM, irinotecan 2.5 μM, 5-FU 5 μM, gemcitabine 2.5 μM, paclitaxel 10 nM, cisplatin 1 μM, alone or KN510 + anticancer drug
# UACC257 cells = assay: SRB assay cancer cell growth rate, UACC257; assay type: cell-based; details: relative to control (100%), 48 hours, KN510 200 μM, irinotecan 2.5 μM, 5-FU 5 μM, gemcitabine 2.5 μM, paclitaxel 10 nM, cisplatin 1 μM, alone or KN510 + anticancer drug
# K562 cells = assay: SRB assay cancer cell growth rate, K562; assay type: cell-based; details: relative to control (100%), 48 hours, KN510 200 μM, irinotecan 2.5 μM, 5-FU 5 μM, gemcitabine 2.5 μM, paclitaxel 10 nM, cisplatin 1 μM, alone or KN510 + anticancer drug
# HCT-116 cells = assay: SRB assay cancer cell growth rate, HCT-116; assay type: cell-based; details: relative to control (100%), 48 hours, KN510 200 μM, irinotecan 2.5 μM, 5-FU 5 μM, gemcitabine 2.5 μM, paclitaxel 10 nM, cisplatin 1 μM, alone or KN510 + anticancer drug
# OVCAR-8 cells = assay: SRB assay cancer cell growth rate, OVCAR-8; assay type: cell-based; details: relative to control (100%), 48 hours, KN510 200 μM, irinotecan 2.5 μM, 5-FU 5 μM, gemcitabine 2.5 μM, paclitaxel 10 nM, cisplatin 1 μM, alone or KN510 + anticancer drug
# [2] = tested on: MKN-28 cells and AGS cells, stomach cancer cells; assay: Synergistic effect of omeprazole and anticancer drug, stomach cancer cells; assay type: cell-based; details: anticancer drug combined with omeprazole (KN510) versus each treatment alone
# [3] = tested on: ovarian cancer cells, OVCAR-8 cells and SK-OV-3 cells; assay: Synergistic effect of omeprazole and anticancer drug, ovarian cancer cells; assay type: cell-based; details: anticancer drug combined with omeprazole (KN510) versus each treatment alone
# [4] = tested on: melanoma cell lines UACC62 cells and UACC257 cells; assay: Synergistic effect of omeprazole and anticancer drug, melanoma cell lines; assay type: cell-based; details: anticancer drug combined with omeprazole (KN510) versus each treatment alone
# [5] = tested on: leukemia cells, SR cells and K562 cells; assay: Synergistic effect of omeprazole and anticancer drug, leukemia cells; assay type: cell-based; details: anticancer drug combined with omeprazole (KN510) versus each treatment alone
# [6] = tested on: prostate cancer cells, PC-3 cells and DU-145 cells; assay: Synergistic effect of omeprazole and anticancer drug, prostate cancer cells; assay type: cell-based; details: anticancer drug combined with omeprazole (KN510) versus each treatment alone
# ACHN cells = assay: SRB assay cancer cell growth rate, ACHN; assay type: cell-based; details: relative to control (100%), 48 hours, KN510 200 μM, irinotecan 2.5 μM, 5-FU 5 μM, gemcitabine 2.5 μM, paclitaxel 10 nM, cisplatin 1 μM, alone or KN510 + anticancer drug
# [7] = tested on: A549 and H23 lung cancer cells; assay: Synergistic effect of omeprazole and anticancer drug, lung cancer cells; assay type: cell-based; details: anticancer drug combined with omeprazole (KN510) versus each treatment alone
# [8] = tested on: glioblastoma (GBM) cell lines, U-87 MG cells and T87G cells; assay: Synergistic effect of omeprazole and anticancer drug, glioblastoma cell lines; assay type: cell-based; details: anticancer drug combined with omeprazole (KN510) versus each treatment alone
# [9] = tested on: renal cell carcinoma cell lines CAKI-1 and ACHN cells; assay: Synergistic effect of omeprazole and anticancer drug, renal cancer cell lines; assay type: cell-based; details: anticancer drug combined with omeprazole (KN510) versus each treatment alone
# [10] = tested on: pancreatic ductal adenocarcinoma (PDAC) cell lines, MIA PaCa-2 cells and PANC-1 cells; assay: Synergistic effect of omeprazole and anticancer drug, pancreatic cancer cell lines; assay type: cell-based; details: anticancer drug combined with omeprazole (KN510) versus each treatment alone
# UACC62 cells = assay: SRB assay cancer cell growth rate, UACC62; assay type: cell-based; details: relative to control (100%), 48 hours, KN510 200 μM, irinotecan 2.5 μM, 5-FU 5 μM, gemcitabine 2.5 μM, paclitaxel 10 nM, cisplatin 1 μM, alone or KN510 + anticancer drug
# [11] = tested on: colon cancer cell lines HCT-116 cells and COLO-205 cells; assay: Synergistic effect of omeprazole and anticancer drug, colon cancer cell lines; assay type: cell-based; details: anticancer drug combined with omeprazole (KN510) versus each treatment alone
# [12] = tested on: liver cancer cell lines SK-HEP-1 cells and Huh-7 cells; assay: Synergistic effect of omeprazole and anticancer drug, liver cancer cell lines; assay type: cell-based; details: anticancer drug combined with omeprazole (KN510) versus each treatment alone
# [13] = tested on: breast cancer cells, MDA-MB-231 cells and MCF-7 cells; assay: Synergistic effect of omeprazole and anticancer drug, breast cancer cells; assay type: cell-based; details: anticancer drug combined with omeprazole (KN510) versus each treatment alone
# [14] = experiment with KN510 50 mg/kg PO 5 days/week
# [15] = experiment with KN510 100 mg/kg PO 5 days/week
SMILES,A549 growth rate average (%) (A549 cells),SR growth rate average (%) (SR cells),PC-3 growth rate average (%) (PC-3 cells),CAKI-1 growth rate average (%) (CAKI-1 cells),UACC257 growth rate average (%) (UACC257 cells),K562 growth rate average (%) (K562 cells),HCT-116 growth rate average (%) (HCT-116 cells),OVCAR-8 growth rate average (%) (OVCAR-8 cells),"synergistic effect of omeprazole and an anticancer drug in combination, stomach cancer [2]","synergistic effect of omeprazole and an anticancer drug in combination, ovarian cancer [3]","synergistic effect of omeprazole and an anticancer drug in combination, melanoma [4]","synergistic effect of omeprazole and an anticancer drug in combination, leukemia [5]","synergistic effect of omeprazole and an anticancer drug in combination, prostate cancer [6]",ACHN growth rate average (%) (ACHN cells),"synergistic effect of omeprazole and an anticancer drug in combination, lung cancer [7]","synergistic effect of omeprazole and an anticancer drug in combination, glioblastoma (GBM) [8]","synergistic effect of omeprazole and an anticancer drug in combination, renal cell carcinoma [9]","synergistic effect of omeprazole and an anticancer drug in combination, pancreatic cancer (PDAC) [10]",UACC62 growth rate average (%) (UACC62 cells),"synergistic effect of omeprazole and an anticancer drug in combination, colon cancer [11]",other results
"COc1ccc2[nH]c([S+]([O-])Cc3ncc(C)c(OC)c3C)nc2c1 (centres unmarked) [KN510, omeprazole]",10.47,42.75,12.70,41.69% and 35.30%,10.97% and 3.31% and 3.10% and 4.33%,34.61,35.30,30.64% and 38.65%,–,–,–,–,–,–,–,–,–,–,–,–,"Tumor volume, 2 week average [1, 14]: 143.01 mm^3; Tumor volume, 2 week average [1, 15]: 93.96 mm^3; Tumor volume, 3 week average [1, 14]: 675.69 mm^3; Tumor volume, 3 week average [1, 15]: 229.95 mm^3; Tumor volume, 4 week average [1, 14]: 965.63 mm^3; Tumor volume, 4 week average [1, 15]: 469.90 mm^3; Tumor volume, 5 week average [1, 14]: 1296.93 mm^3; Tumor volume, 5 week average [1, 15]: 843.25 mm^3"
"O=c1[nH]cc(F)c(=O)[nH]1 [5-FU, fluorouracil]",27.36,96.15,55.19,47.91%,62.17%,99.83,41.59,27.12%,Negative effect,Negative effect,significantly inhibited; also recorded: Positive effect,significantly inhibited; also recorded: Positive effect,Negative effect,48.97,significantly inhibited; also recorded: Positive effect,Negative effect,significantly inhibited; also recorded: Positive effect,Negative effect,52.14,significantly inhibited; also recorded: Positive effect,"synergistic effect of omeprazole and an anticancer drug in combination, liver cancer [12]: significantly inhibited; also recorded: Positive effect; synergistic effect of omeprazole and an anticancer drug in combination, breast cancer [13]: Negative effect"
CC(=O)O[C@H]1C(=O)[C@@]2(C)[C@H]([C@H](OC(=O)c3ccccc3)[C@]3(O)C[C@H](OC(=O)[C@H](O)[C@@H](NC(=O)c4ccccc4)c4ccccc4)C(C)=C1C3(C)C)[C@]1(OC(C)=O)CO[C@@H]1C[C@@H]2O [Paclitaxel],22.67,94.83,32.49,17.70%,35.43%,59.27,17.70,12.64%,Positive effect,Negative effect,Positive effect,Positive effect,Negative effect,0.91,Positive effect,Positive effect,Negative effect,Positive effect,48.36,Positive effect,"synergistic effect of omeprazole and an anticancer drug in combination, stomach cancer ([2]; listed as paclitaxel): significantly inhibited; synergistic effect of omeprazole and an anticancer drug in combination, melanoma ([4]; listed as paclitaxel): significantly inhibited; synergistic effect of omeprazole and an anticancer drug in combination, leukemia ([5]; listed as paclitaxel): significantly inhibited; synergistic effect of omeprazole and an anticancer drug in combination, lung cancer ([7]; listed as paclitaxel): significantly inhibited; synergistic effect of omeprazole and an anticancer drug in combination, glioblastoma (GBM) ([8]; listed as paclitaxel): significantly inhibited; synergistic effect of omeprazole and an anticancer drug in combination, pancreatic cancer (PDAC) ([10]; listed as paclitaxel): significantly inhibited; synergistic effect of omeprazole and an anticancer drug in combination, colon cancer ([11]; listed as paclitaxel): significantly inhibited; synergistic effect of omeprazole and an anticancer drug in combination, liver cancer [12]: Negative effect; synergistic effect of omeprazole and an anticancer drug in combination, breast cancer [13]: Negative effect"
Nc1ccn([C@@H]2O[C@H](CO)[C@@H](O)C2(F)F)c(=O)n1 [Gemcitabine],−16.60,53.15,32.17,2.30%,30.97%,53.51,16.32,−14.25%,Negative effect,Negative effect,Negative effect,Negative effect,Negative effect,−2.82,Negative effect,Negative effect,Negative effect,Negative effect,53.65,Negative effect,"synergistic effect of omeprazole and an anticancer drug in combination, liver cancer [12]: Negative effect; synergistic effect of omeprazole and an anticancer drug in combination, breast cancer [13]: Negative effect"
